Experimental data from patent US7566712B2, “Biaryl piperazinyl-pyridine analogues” (Neurogen Corporation, priority 2003, dated 2009).

Each molecule was assayed against T1, human capsaicin receptor (Homo sapiens, UniProt Q8NER1) (assay: Calcium mobilization assay, determination of antagonist activity (Example 6)). Settings: Table II; IC50 determined as described in Example 6.
T1 construct: pBK-CMV expression construct encoding the full length human capsaicin receptor; expressed in transfected cells
T1 sequence (Q8NER1 whole entry): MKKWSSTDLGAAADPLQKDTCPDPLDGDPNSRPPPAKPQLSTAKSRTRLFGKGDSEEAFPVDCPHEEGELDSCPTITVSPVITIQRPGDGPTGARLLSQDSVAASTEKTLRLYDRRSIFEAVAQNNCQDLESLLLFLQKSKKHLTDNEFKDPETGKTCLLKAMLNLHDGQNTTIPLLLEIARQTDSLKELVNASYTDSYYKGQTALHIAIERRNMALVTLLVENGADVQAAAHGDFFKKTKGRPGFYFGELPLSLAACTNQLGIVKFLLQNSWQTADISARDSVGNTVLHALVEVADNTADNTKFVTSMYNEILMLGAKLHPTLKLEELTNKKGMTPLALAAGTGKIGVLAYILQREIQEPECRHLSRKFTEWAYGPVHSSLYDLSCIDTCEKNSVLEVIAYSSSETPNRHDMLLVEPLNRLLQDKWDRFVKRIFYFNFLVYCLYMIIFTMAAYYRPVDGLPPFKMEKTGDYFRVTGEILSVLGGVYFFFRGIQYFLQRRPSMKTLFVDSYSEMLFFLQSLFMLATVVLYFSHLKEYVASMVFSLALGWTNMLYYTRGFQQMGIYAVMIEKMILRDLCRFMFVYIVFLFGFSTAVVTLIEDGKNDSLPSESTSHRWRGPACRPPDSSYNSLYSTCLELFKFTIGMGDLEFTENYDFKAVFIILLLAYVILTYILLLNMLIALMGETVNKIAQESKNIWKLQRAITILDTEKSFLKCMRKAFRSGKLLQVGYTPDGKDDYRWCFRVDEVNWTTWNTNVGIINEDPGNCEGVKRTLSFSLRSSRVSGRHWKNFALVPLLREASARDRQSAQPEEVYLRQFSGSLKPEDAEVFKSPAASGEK
Assay type: cell-based
How it was run: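 Antagonism measured as inhibition of capsaicin-evoked (final concentration = EC50, from an 8-point 1 nM–3 μM curve) Fluo-3 calcium signal in stable hVR1-HEK293 cells. Test compounds at 1–5 μM final, 0.5–6 h dark preincubation at room temperature. IC50 = concentration giving 50% reduction versus agonist-only response.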
Molecule Fc1ccc(-c2nc(N3CCOCC3)nc(N3CCN(c4ncccc4Cl)CC3)n2)cc1Cl [Example 427, 2-(3-chloro-4-fluorophenyl)-4-[4-(3-chloropyridin-2-yl)piperazin-1-yl]-6-morpholin-4-yl-1,3,5-triazine] has an IC50 of no more than 1000 nM.
CCCc1ccc(-c2cc(N3CCN(c4ncccc4C#N)C[C@H]3C)nc(N3CCOCC3)n2)cc1 [Example 512, 2-{(3R)-3-methyl-4-[2-morpholin-4-yl-6-(4-propylphenyl)pyrimidin-4-yl]piperazin-1-yl}nicotinonitrile] was tested, and the IC50 was no more than 1000 nM.

Same assay, conditions: Table II; IC50 determined as described in Example 6 (antagonist activity, calcium mobilization)
CNc1ccc(Cl)c(N2CCN(c3cc(-c4ccc(F)cc4)nc(N4CCCC4C)n3)[C@H](C)C2)n1 (stereo partly shown) [Example 1012, 5-chloro-6-{4-[6-(4-fiuorophenyl)-2-(2-methylpyrrolidin-1-yl)pyrimidin-4-yl]-3-methylpiperazin-1-yl}-N-methylpyridin-2-amine] was tested, and the IC50 was no more than 1000 nM.

Same assay, conditions: Table II; determined as described in Example 6 (antagonist activity); "*" = 1 micromolar or less
Work on CC1CCCN1c1nc(-c2ccc(F)cc2)cc(N2CCN(c3ncccc3Cl)C[C@H]2C)n1 (stereo in doubt) [Example 842, 4-[4-(3-chloropyridin-2-yl)-2-methylpiperazin-1-yl]-6-(4-fluorophenyl)-2-(2-methylpyrrolidin-1-yl)pyrimidine] yielded an IC50 of no more than 1000 nM.
With N#Cc1cncc(-c2cc(N3CCN(c4ncccc4C(F)(F)F)CC3)nc(N3CCCC3)n2)c1 [Example 886, 5-(2-pyrrolidin-1-yl-6-{4-[3-(trifluoromethyl)pyridin-2-yl]piperazin-1-yl}pyrimidin-4-yl)nicotinonitrile] the IC50 was no more than 1000 nM.
C[C@@H]1CN(c2nccnc2Cl)CCN1c1cc(-c2ccc(F)cc2)nc(N2CCC[C@H]2C)n1 [Example 927, 4-[(2R)-4-(3-chloropyrazin-2-yl)-2-methylpiperazin-1-yl]-6-(4-fluorophenyl)-2-[(2R)-2-methylpyrrolidin-1-yl]pyrimidine] gave an IC50 of no more than 1000 nM.
With Cc1ccc(-c2cc(N3CCN(c4ncccc4Cl)C[C@H]3C)nc(N3CCCC3)n2)cc1F [Example 802] the IC50 was no more than 1000 nM.
C[C@@H]1CN(c2nccnc2Cl)CCN1c1cc(-c2ccc(F)c(Cl)c2)nc(N2CCOCC2)n1 [Example 910, 4-{4-(3-chloro-4-fluorophenyl)-6-[(2R)-4-(3-chloropyrazin-2-yl)-2-methylpiperazin-1-yl]pyrimidin-2-yl}morpholine] gave an IC50 of no more than 1000 nM.

Same assay, conditions: determined as described in Example 6 (calcium mobilization, antagonist activity); Table II
CC(C)N1CC=C(c2nc(-c3ccc(F)c(Cl)c3)cc(N3CCN(c4ncccc4C(F)(F)F)CC3)n2)CC1 [Example 660, 4-(3-chloro-4-fluorophenyl)-2-(1-isopropyl-1,2,3,6-tetrahydropyridin-4-yl)-6-{4-[3-(trifluoromethyl)pyridin-2-yl]piperazin-1-yl}pyrimidine] gave an IC50 of no more than 1000 nM.
Work on Cc1cc(-c2cc(N3CCN(c4ncccc4C(F)(F)F)CC3)nc(N3CCCC3C)n2)ccc1F (stereo not shown) [Example 676, 4-(4-fluoro-3-methylphenyl)-2-(2-methylpyrrolidin-1-yl)-6-{4-[3-(trifluoromethyl)pyridin-2-yl]piperazin-1-yl}pyrimidine] yielded an IC50 of no more than 1000 nM.
CC1CCC(C)N1c1nc(-c2ccc(F)c(Cl)c2)cc(N2CCN(c3ncccc3Cl)C[C@H]2C)n1 (stereo partly drawn) [Example 752, 4-(3-chloro-4-fluorophenyl)-6-[(2R)-4-(3-chloropyridin-2-yl)-2-methylpiperazin-1-yl]-2-(2,5-dimethylpyrrolidin-1-yl)pyrimidine] showed an IC50 of no more than 1000 nM.
For CNC[C@@H]1CCCN1c1nc(-c2ccc(F)c(Cl)c2)cc(N2CCN(c3ncccc3C(F)(F)F)CC2)n1 [Example 694, 1-[(2S)-1-(4-(3-chloro-4-fluorophenyl)-6-{4-[3-(trifluoromethyl)pyridin-2-yl]piperazin-1-yl}pyrimidin-2-yl)pyrrolidin-2-yl]-N-methylmethanamine], the IC50 was no more than 1000 nM.
With CCc1nccn1-c1nc(-c2ccc(F)c(Cl)c2)cc(N2CCN(c3ncccc3C(F)(F)F)CC2)n1 [Example 648, 4-(3-chloro-4-fluorophenyl)-2-(2-ethyl-1H-imidazol-1-yl)-6-{4-[3-(trifluoromethyl)pyridin-2-yl]piperazin-1-yl}pyrimidine] the IC50 was no more than 1000 nM.
